Laboratory results taken from US20240166635A1, “AMINOHETEROARYL KINASE INHIBITORS” (Anrui Biomedical Technology (Guangzhou) Co.,Ltd., priority 2020, published 2024).

Key:
Format in all cases: biochemical
CDK2/CyclinE1 = CDK2/CyclinE1 (Homo sapiens (Human), UniProt P24941); assay: CDK2/CyclinE1 kinase inhibitory activity (Caliper mobility shift); conditions: read-out: CDK2/Cyclin El IC50
CDK4/Cyclin D1 = CDK4/Cyclin D1 (Homo sapiens (Human), UniProt P11802); assay: CDK4/CyclinD1 kinase inhibitory activity (Caliper mobility shift)
Sequence of CDK4/Cyclin D1 (P11802 whole entry): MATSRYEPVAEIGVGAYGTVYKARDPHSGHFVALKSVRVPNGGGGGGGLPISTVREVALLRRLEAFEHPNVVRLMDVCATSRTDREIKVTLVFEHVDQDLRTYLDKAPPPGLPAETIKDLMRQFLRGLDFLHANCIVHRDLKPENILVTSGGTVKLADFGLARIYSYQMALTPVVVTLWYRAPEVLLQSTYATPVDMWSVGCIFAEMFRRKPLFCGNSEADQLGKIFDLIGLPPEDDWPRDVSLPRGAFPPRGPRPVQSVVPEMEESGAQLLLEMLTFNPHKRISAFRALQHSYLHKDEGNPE
Sequence of CDK4/Cyclin D1 (P24385 whole entry partner): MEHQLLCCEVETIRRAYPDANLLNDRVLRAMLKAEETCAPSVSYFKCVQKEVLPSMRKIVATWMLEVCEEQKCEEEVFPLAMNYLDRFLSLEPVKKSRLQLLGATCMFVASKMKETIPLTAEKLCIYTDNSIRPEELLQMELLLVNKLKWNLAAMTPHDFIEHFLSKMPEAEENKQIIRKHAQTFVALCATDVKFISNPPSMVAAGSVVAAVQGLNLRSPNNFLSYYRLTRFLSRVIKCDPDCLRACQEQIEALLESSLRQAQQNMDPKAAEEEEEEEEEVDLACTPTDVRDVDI

CDK1/CyclinB = CDK1/CyclinB (Homo sapiens (Human), UniProt P06493); assay: CDK1/CyclinB kinase inhibitory activity (Caliper mobility shift); conditions: read-out: CDK1/Cyclin B1 IC50
Sequence of CDK1/CyclinB (P06493 whole entry): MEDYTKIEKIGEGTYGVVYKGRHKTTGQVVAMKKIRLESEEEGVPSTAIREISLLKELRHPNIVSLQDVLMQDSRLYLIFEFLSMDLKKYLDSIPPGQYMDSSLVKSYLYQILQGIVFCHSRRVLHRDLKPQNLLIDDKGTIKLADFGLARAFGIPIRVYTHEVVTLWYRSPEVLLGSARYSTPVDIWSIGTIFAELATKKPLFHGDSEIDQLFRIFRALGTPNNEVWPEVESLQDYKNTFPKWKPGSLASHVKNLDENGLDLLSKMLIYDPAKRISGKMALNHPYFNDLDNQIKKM
Sequence of CDK1/CyclinB (P14635 whole entry partner): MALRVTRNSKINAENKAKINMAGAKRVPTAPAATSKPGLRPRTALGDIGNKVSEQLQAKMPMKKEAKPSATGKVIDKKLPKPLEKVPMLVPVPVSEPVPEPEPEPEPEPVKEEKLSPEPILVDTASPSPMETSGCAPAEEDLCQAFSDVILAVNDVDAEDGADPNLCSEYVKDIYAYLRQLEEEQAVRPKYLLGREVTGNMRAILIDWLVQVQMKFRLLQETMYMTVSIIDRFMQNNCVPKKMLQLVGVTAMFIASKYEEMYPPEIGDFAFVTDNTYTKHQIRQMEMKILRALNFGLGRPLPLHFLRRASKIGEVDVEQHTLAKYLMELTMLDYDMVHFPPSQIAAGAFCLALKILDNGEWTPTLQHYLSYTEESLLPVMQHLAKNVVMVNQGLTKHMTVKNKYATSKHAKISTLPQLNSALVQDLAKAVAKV

CDK6/CyclinD1 = CDK6/CyclinD1 (Homo sapiens (Human), UniProt Q00534); assay: CDK6/CyclinD1 kinase inhibitory activity (Caliper mobility shift); conditions: read-out: CDK6/Cyclin D1 IC50
Sequence of CDK6/CyclinD1 (Q00534 whole entry): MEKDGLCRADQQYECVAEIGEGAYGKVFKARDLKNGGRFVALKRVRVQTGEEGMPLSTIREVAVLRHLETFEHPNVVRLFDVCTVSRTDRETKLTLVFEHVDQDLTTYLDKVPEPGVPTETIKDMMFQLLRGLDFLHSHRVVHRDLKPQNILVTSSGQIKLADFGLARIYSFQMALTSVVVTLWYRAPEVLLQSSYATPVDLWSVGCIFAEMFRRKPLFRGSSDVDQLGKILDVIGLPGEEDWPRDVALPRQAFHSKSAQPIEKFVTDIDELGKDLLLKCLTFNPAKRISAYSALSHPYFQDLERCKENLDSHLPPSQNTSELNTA
Sequence of CDK6/CyclinD1 (P24385 whole entry partner): as the sequence (P24385 whole entry partner) above

CDK9/CyclinT1 = CDK9/CyclinT1 (Homo sapiens (Human), UniProt P50750); assay: CDK9/CyclinT1 kinase inhibitory activity (Caliper mobility shift); conditions: read-out: CDK9/Cyclin T1 IC50
Sequence of CDK9/CyclinT1 (P50750 whole entry): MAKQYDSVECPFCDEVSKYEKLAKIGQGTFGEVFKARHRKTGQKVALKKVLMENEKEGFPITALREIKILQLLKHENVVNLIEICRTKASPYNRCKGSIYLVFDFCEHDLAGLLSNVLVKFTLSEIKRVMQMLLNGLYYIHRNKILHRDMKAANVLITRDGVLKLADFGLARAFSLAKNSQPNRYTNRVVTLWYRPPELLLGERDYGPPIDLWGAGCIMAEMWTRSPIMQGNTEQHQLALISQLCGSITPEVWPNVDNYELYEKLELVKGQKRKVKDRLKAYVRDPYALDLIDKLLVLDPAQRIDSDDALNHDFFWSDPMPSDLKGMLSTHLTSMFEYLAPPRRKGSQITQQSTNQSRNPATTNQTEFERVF
Sequence of CDK9/CyclinT1 (O60563 whole entry partner): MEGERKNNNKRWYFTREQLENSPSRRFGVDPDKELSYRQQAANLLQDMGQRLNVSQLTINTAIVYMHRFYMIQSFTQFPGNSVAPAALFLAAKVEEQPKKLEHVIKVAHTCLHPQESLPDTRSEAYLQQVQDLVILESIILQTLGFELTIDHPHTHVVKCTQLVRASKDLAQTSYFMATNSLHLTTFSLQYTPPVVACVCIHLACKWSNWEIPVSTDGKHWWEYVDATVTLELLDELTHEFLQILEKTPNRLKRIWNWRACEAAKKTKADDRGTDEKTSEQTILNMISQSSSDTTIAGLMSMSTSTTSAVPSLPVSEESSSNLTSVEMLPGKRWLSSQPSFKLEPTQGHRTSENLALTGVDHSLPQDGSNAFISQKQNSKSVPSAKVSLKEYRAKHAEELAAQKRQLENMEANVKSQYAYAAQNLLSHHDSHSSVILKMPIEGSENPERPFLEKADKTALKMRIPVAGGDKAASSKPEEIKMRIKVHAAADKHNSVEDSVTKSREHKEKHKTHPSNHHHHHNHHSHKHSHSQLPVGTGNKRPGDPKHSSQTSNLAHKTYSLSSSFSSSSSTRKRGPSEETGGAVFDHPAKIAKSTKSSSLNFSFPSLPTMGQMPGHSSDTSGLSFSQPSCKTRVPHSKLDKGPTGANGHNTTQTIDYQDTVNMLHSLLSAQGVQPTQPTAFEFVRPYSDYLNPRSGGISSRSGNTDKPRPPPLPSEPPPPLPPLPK

CDK7/CyclinH/MAT1 = CDK7/CyclinH/MAT1 (Homo sapiens (Human), UniProt P50613); assay: CDK7/CyclinH/MAT1 kinase inhibitory activity (Caliper mobility shift)
Sequence of CDK7/CyclinH/MAT1 (P50613 whole entry): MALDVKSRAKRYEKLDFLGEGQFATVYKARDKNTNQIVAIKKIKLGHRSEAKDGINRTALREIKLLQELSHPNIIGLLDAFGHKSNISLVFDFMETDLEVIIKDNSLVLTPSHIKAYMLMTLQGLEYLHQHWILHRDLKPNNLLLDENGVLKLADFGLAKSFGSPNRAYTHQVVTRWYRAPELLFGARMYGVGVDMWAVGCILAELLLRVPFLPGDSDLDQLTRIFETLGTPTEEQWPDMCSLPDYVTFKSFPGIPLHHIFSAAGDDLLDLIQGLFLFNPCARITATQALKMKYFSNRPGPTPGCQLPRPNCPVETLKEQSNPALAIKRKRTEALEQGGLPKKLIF
Sequence of CDK7/CyclinH/MAT1 (P51946 whole entry partner): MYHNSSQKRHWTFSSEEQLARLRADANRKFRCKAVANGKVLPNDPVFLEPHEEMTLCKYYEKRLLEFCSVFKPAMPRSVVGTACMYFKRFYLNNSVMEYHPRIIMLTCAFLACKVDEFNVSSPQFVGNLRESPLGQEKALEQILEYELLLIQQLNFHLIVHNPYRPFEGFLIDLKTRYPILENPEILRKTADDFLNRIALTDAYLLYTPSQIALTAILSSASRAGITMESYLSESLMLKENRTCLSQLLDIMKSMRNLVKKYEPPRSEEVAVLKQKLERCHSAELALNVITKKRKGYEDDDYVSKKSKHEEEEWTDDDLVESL
Sequence of CDK7/CyclinH/MAT1 (P51948 whole entry partner): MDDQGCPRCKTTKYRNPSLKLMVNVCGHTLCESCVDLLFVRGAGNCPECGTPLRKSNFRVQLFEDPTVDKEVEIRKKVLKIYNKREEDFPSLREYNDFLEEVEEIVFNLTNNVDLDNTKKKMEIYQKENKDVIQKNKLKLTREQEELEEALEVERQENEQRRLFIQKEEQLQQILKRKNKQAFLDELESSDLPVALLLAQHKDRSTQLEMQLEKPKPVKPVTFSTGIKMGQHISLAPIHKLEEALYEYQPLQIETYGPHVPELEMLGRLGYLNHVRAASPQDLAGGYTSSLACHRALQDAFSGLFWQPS

| SMILES | IC50 (CDK2/CyclinE1) [nM] | IC50 (CDK4/Cyclin D1) [nM] | IC50 (CDK1/CyclinB) [nM] | IC50 (CDK6/CyclinD1) [nM] | IC50 (CDK9/CyclinT1) [nM] | IC50 (CDK7/CyclinH/MAT1) [nM] |
| --- | --- | --- | --- | --- | --- | --- |
| CC1(O)COCCC1Oc1nc(NC2CCN(S(C)(=O)=O)CC2)ncc1C#N (single isomer, unassigned) [Example 45b] | 100 to 1000 | 100 to 1000 | ≥ 1000 | 100 to 1000 | ≥ 1000 | – |
| C[C@]1(O)COC[C@H]1Oc1nc(NC2CCN(S(C)(=O)=O)CC2)ncc1C(F)(F)F (relative stereo) [Example 104b, cis-3-methyl-4-((2-((1-(methylsulfonyl)piperidin-4-yl)amino)-5-(trifluoromethyl)pyrimidin-4-yl)oxy)tetrahydrofuran-3-ol] | 10 to 100 | 100 to 1000 | 100 to 1000 | 100 to 1000 | ≥ 1000 | – |
| [2H]C([2H])([2H])NS(=O)(=O)c1ccc(Nc2ncc(C(F)(F)F)c(O[C@H]3CCCOC[C@H]3O)n2)cc1 (single isomer, unassigned) [Example 103b, cis-4-((4-((3-hydroxyoxepan-4-yl)oxy)-5-(trifluoromethyl)pyrimidin-2-yl)amino)-N-(methyl-d3)benzenesulfonamide] | – | ≥ 1000 | 100 to 1000 | – | – | ≥ 1000 |
| CNS(=O)(=O)c1ccc(Nc2ncc(C(F)(F)F)c(O[C@H]3CCOC[C@H]3O)n2)c(F)c1 (single isomer, unassigned) [Example 101b, cis-3-fluoro-4-((4-((3-hydroxytetrahydro-2H-pyran-4-yl)oxy)-5-(trifluoromethyl)pyrimidin-2-yl)amino)-N-(methyl-d3)benzenesulfonamide] | – | ≥ 1000 | – | ≥ 1000 | – | – |
| CC1(O)CCC(F)(F)CC1Oc1nc(NC2CCN(S(C)(=O)=O)CC2)ncc1C#N (single isomer, unassigned) [Example 46a] | 100 to 1000 | 100 to 1000 | – | 100 to 1000 | – | – |
| C[C@]1(O)CC(F)(F)C[C@H]1Oc1nc(NC2CCN(S(C)(=O)=O)CC2)ncc1C#N (relative stereo) [Example 4b, cis-4-((4,4-difluoro-2-hydroxy-2-methylcyclopentyl)oxy)-2-((1-(methylsulfonyl)piperidin-4-yl)amino)pyrimidine-5-carbonitrile] | 10 to 100 | 100 to 1000 | 100 to 1000 | 10 to 100 | ≥ 1000 | – |
| N#Cc1cnc(Nc2ccc(S(N)(=O)=O)cc2)nc1OCC1CCCC1 [Example 1, 4-((5-cyano-4-(cyclopentylmethoxy)pyrimidin-2-yl)amino)benzenesulfonamide] | 10 to 100 | – | 10 to 100 | ≥ 1000 | 10 to 100 | ≥ 1000 |
| CC1(COc2nc(Nc3ccc(S(N)(=O)=O)cc3)ncc2C#N)CCCCC1 [Example 14] | 10 to 100 | – | 100 to 1000 | ≥ 1000 | 100 to 1000 | ≥ 1000 |
| C[C@@H]1CCCN(c2nc(Nc3ccc(S(N)(=O)=O)cc3)ncc2C#N)C1 [Example 72] | 10 to 100 | – | 100 to 1000 | 100 to 1000 | 100 to 1000 | ≥ 1000 |
| NS(=O)(=O)c1ccc(Nc2ncc(F)c(N3CCCCC3)n2)cc1 [Example 86] | 10 to 100 | – | 10 to 100 | ≥ 1000 | 10 to 100 | ≥ 1000 |
| CC1(O)COCCC1Oc1nc(NC2CCN(S(C)(=O)=O)CC2)ncc1C(F)(F)F (single isomer, unassigned) [Example 124b] | 100 to 1000 | 100 to 1000 | ≥ 1000 | 100 to 1000 | ≥ 1000 | – |

Continued, values first:

| IC50 (CDK2/CyclinE1) [nM] | IC50 (CDK4/Cyclin D1) [nM] | IC50 (CDK1/CyclinB) [nM] | IC50 (CDK6/CyclinD1) [nM] | IC50 (CDK9/CyclinT1) [nM] | IC50 (CDK7/CyclinH/MAT1) [nM] | SMILES |
| --- | --- | --- | --- | --- | --- | --- |
| < 10 | ≥ 1000 | – | – | – | – | CNS(=O)(=O)c1ccc(Nc2ncc(C(F)(F)F)c(OC3CCOCCC3O)n2)cc1 (single isomer, unassigned) [Example 102c, 4-((4-((5-hydroxyoxepan-4-yl)oxy)-5-(trifluoromethyl)pyrimidin-2-yl)amino)-N-(methyl-d3)benzenesulfonamide] |
| < 10 | < 10 | 10 to 100 | 10 to 100 | 100 to 1000 | – | C[C@]1(O)CCC[C@H]1Oc1nc(NC2CCN(S(C)(=O)=O)CC2)ncc1C#N (relative stereo) [Example 5a, cis-4-((2-hydroxy-2-methylcyclopentyl-4,4-d2)oxy)-2-((1-(methylsulfonyl)piperidin-4-yl)amino)pyrimidine-5-carbonitrile] |
| < 10 | ≥ 1000 | – | – | – | – | CNS(=O)(=O)c1ccc(Nc2ncc(C(F)(F)F)c(OC3CCOCCC3O)n2)cc1 (single isomer, unassigned) [Example 102d, 4-((4-((5-hydroxyoxepan-4-yl)oxy)-5-(trifluoromethyl)pyrimidin-2-yl)amino)-N-(methyl-d3)benzenesulfonamide] |
| 10 to 100 | 100 to 1000 | 100 to 1000 | 10 to 100 | ≥ 1000 | – | C[C@]1(O)CCC[C@H]1Oc1nc(NC2CCN(S(C)(=O)=O)CC2)ncc1C#N (relative stereo) [Example 5b, cis-4-((2-hydroxy-2-methylcyclopentyl-4,4-d2)oxy)-2-((1-(methylsulfonyl)piperidin-4-yl)amino)pyrimidine-5-carbonitrile] |
| < 10 | ≥ 1000 | – | – | – | – | CNS(=O)(=O)c1ccc(Nc2ncc(C(F)(F)F)c(OC3CCOCCC3O)n2)cc1 (single isomer, unassigned) [Example 102b, 4-((4-((5-hydroxyoxepan-4-yl)oxy)-5-(trifluoromethyl)pyrimidin-2-yl)amino)-N-(methyl-d3)benzenesulfonamide] |
| 10 to 100 | 100 to 1000 | 100 to 1000 | 10 to 100 | ≥ 1000 | – | CC1(O)CC(F)(F)CC1Oc1nc(NC2CCN(S(=O)(=O)CC3CC3)CC2)ncc1C#N (single isomer, unassigned) [Example 44a] |
| < 10 | – | 10 to 100 | 100 to 1000 | 100 to 1000 | ≥ 1000 | N#Cc1cnc(Nc2ccc(S(N)(=O)=O)cc2)nc1-c1ccc(O)cc1 [Example 92, 4-((5-cyano-4-(4-hydroxyphenyl)pyrimidin-2-yl)amino)benzenesulfonamide] |
| < 10 | – | 10 to 100 | 100 to 1000 | 10 to 100 | ≥ 1000 | CC1(C)CCCN(c2nc(Nc3ccc(S(N)(=O)=O)cc3)ncc2C#N)C1 [Example 83] |
| < 10 | – | 10 to 100 | 100 to 1000 | 100 to 1000 | ≥ 1000 | N#Cc1cnc(Nc2ccc(S(=O)(=O)NC3COC3)cc2)nc1N1CCCCC1 [Example 66, 4-((5-cyano-4-(piperidin-1-yl)pyrimidin-2-yl)amino)-N-(oxetan-3-yl)benzenesulfonamide] |
| < 10 | 10 to 100 | 10 to 100 | 10 to 100 | ≥ 1000 | – | Cn1cc(S(=O)(=O)N2CCC(Nc3ncc(C#N)c(OC4CCCC4(C)O)n3)CC2)cn1 (single isomer, unassigned) [Example 48b] |
| < 10 | – | 10 to 100 | 100 to 1000 | 100 to 1000 | 100 to 1000 | N#Cc1cnc(Nc2ccc(S(N)(=O)=O)cc2)nc1N1CCCC(c2ccccc2)C1 (single isomer, unassigned) [Example 85] |
| < 10 | – | 10 to 100 | 100 to 1000 | 100 to 1000 | ≥ 1000 | N#Cc1cnc(Nc2ccc(S(N)(=O)=O)cc2)nc1OCC1(CO)CCCCC1 [Example 17] |
